Measurements taken from ChEMBL document CHEMBL4800731, “Data for DCP probe JNJ-65355394” (2021).

Legend:
[1] = molecular target: D(2) dopamine receptor (Homo sapiens) (UniProt P14416); experiment: hD2S Cerep panel
[2] = molecular target: Alpha-1A adrenergic receptor (Rattus norvegicus) (UniProt P43140); experiment: rAa1 Cerep panel
Alpha-1A adrenergic receptor (Rattus norvegicus), sequence (P43140 whole entry): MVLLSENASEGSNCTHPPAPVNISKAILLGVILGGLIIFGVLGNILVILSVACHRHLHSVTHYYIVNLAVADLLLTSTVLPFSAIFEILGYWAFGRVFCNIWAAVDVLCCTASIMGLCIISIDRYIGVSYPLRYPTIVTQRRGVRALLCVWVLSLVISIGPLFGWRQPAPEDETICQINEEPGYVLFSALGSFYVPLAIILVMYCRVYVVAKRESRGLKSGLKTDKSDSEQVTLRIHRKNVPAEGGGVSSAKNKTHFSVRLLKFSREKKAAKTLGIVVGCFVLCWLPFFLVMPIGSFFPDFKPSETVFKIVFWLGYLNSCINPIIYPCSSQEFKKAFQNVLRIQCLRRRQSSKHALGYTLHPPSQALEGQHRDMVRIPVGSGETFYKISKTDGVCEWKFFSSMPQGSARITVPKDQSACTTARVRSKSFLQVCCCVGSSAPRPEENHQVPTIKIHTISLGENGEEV

D(2) dopamine receptor (Homo sapiens), sequence (P14416 whole entry): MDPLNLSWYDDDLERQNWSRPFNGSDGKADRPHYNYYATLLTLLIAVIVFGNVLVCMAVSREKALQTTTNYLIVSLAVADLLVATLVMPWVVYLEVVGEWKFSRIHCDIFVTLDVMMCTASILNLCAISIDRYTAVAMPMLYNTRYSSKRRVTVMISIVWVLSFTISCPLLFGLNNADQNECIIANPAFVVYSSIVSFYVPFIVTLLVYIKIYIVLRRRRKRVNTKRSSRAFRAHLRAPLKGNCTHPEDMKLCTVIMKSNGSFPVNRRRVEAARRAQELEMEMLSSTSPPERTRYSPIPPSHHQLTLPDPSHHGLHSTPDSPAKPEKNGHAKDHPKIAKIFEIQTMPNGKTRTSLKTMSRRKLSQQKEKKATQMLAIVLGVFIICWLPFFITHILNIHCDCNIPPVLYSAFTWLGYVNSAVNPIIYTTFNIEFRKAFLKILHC

Structure (SMILES): CC(=O)Nc1ncc(CN2CCC[C@H](Cc3cc(C)nc(C)c3)C2)s1 [JNJ-65355394]
- effect [1]: 10.5%
- effect [2]: 19.5%
